# According to patent US20230416239A1, “COMPOUNDS AND METHODS FOR TREATING A CYTOKINE-MEDIATED DISEASE” (CONSERVATOIRE NATIONAL DES ARTS ET MÉTIERS, priority 2020, published 2023):
# Legend:
# TNFa/TNFRI interaction = TNFa/TNFRI interaction (Homo sapiens, UniProt P01375); test: TNFa/TNFRI interaction displacement test; assay type: binding; settings: for Displacement (%): compounds at 50 μM, human TNFRI 100 ng/ml; for Displacement EC50 TNFa in presence of compound: Difference: Compound EC50 minus SPD304 EC50;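 for Displacement EC50 TNFa in presence of compound: Difference: SPD304 reference at 20 µM final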
# Procedure, shortened: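 Plates coated overnight at 4° C with human TNFRI (100 ng/ml) and blocked with 2% BSA, then test mixtures were incubated overnight at 4° C. Bound cytokine detected with biotinylated anti-cytokine antibody (2 h, 37° C) and avidin-HRP, read as OD at 450 nm.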
# IL-13 = IL-13 (Homo sapiens, UniProt P35225); test: Immunoassay binding test, IL-13; settings: for IC50: IL-13 400 ng/ml, receptor 100 ng/ml, read-out: BINDING IL13 IC50
# Procedure, shortened: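 Receptor-coated plates; compounds (100 to 0.78 μM final) preincubated 2 h at 37° C with fixed cytokine, then bound to receptor overnight at 4° C. Bound cytokine detected with biotinylated anti-cytokine antibody and avidin-HRP, OD 450 nm.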
# IL-6 = IL-6 (Homo sapiens, UniProt P05231); test: Immunoassay binding test, IL-6 (gp130 receptor, IL-6Ra present); settings: IL-6Ra 200 ng/ml
# Procedure, shortened: (§1)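 Detection used OD at 450 nm after biotinylated anti-cytokine antibody and avidin-HRP were applied to receptor-coated wells. Those wells had received, overnight at 4 °C, cytokine preincubated 2 h at 37 °C with compound at final 100 to 0.78 μM. IL-6 mixtures further contained IL-6Ra at 200 ng/ml final.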
# TNFα = TNFα (Homo sapiens, UniProt P01375); test: Immunoassay binding test, TNFa; settings: compounds 100 to 0.78 μM; TNFα 10 ng/ml, receptor 100 ng/ml; read-out: BINDING TNF IC50
# Procedure, shortened: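 ELISA-type binding test: receptor-coated plates blocked with 2% BSA, then cytokine (six-point dilution series) preincubated 2 h at 37 °C and bound overnight at 4 °C. Detection used biotinylated anti-cytokine antibody and avidin-HRP, read as OD at 450 nm. For IL-6, IL-6Ra was present at 200 ng/ml final.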
# IL-4 = biological target: T1, IL-4 (Homo sapiens, UniProt P05112); test: Immunoassay binding test, IL-4; settings: for IC50: IL-4 400 ng/ml, receptor 100 ng/ml, read-out: BINDING IL4 IC50
# T1 sequence (P05112 25-153): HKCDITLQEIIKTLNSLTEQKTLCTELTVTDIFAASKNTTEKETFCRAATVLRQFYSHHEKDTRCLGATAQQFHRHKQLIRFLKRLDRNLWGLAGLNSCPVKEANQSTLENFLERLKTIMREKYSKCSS
# Procedure, shortened: as §1
# Chain of IL-13 (P35225 25-146, species assumed): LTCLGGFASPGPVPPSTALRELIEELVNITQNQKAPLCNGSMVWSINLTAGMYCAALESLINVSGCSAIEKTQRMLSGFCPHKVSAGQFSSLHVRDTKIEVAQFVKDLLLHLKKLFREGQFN
# Chain of IL-6 (P05231 30-212, species assumed): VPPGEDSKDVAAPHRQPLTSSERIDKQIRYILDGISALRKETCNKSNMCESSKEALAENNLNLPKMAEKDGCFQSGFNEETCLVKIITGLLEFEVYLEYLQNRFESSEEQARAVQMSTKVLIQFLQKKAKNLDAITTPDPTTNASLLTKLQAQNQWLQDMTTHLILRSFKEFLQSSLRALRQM
# Chain of TNFa/TNFRI interaction (P01375 77-233 limits assumed): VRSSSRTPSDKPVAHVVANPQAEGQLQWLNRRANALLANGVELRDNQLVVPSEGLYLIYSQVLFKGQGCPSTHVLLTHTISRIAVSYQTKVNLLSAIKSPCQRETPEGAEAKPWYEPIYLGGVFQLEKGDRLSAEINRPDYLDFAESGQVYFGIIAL
# Chain of TNFα (P01375 77-233 limits assumed, species assumed): as the sequence (P01375 77-233 limits assumed) above
Displacement (%) (TNFa/TNFRI interaction),BINDING IL13 % Neutra at 100 μM (IL-13) [%],IC50 (IL-13) [µM],BINDING IL6 % Neutra at 100 μM (IL-6) [%],IC50 (TNFα) [µM],BINDING IL4 % Neutra at 100 μM (IL-4) [%],IC50 (IL-4) [µM],Displacement EC50 TNFa in presence of compound: Difference (TNFa/TNFRI interaction),Structure (SMILES)
160,87.3,> 50,0,6.6,91.9,5.7,–,"CN(CCCCN(Cc1cccnc1F)Cc1cn(S(=O)(=O)c2ccccc2)c2ccccc12)C1CCCCCC1 [Compound 74, N′-cycloheptyl-N^4-((2-fluoropyridin-^3-yl)methyl)-N′-methyl-N^4-((1-(phenylsulfonyl)-1H-indol-^3-yl)methyl)butane-1,4-diamine]"
137,69.7,> 50,0,15.5,94.0,5.2,–,CN(C)CCCCCN(Cc1cccc(F)n1)Cc1cn(S(=O)(=O)c2ccccc2)c2ccccc12 [Compound 90]
165,58.8,40.4,0,9.6,76.7,9.1,–,"CCCN(CCOCCN(Cc1cccnc1F)Cc1cn(S(=O)(=O)c2ccccc2)c2ccccc12)C1CCCC1 [Compound 108, N-(2-(2-(((2-fluoropyridin-3-yl)methyl)((1-(phenylsulfonyl)-1H-indol-3-yl)methyl)amino)ethoxy)ethyl)-N-propylcyclopentanamine]"
123,79.8,> 50,0,9.2,88.2,13.2,–,CN(CCOCCN(Cc1cccnc1F)Cc1cn(S(=O)(=O)c2ccccc2)c2ccccc12)C1CCCC1 [Compound 104]
126,69.6,> 100,1,11.5,92.4,13.5,–,"CN(CCCCN(Cc1cccnc1F)Cc1cn(S(=O)(=O)c2ccccc2)c2ccccc12)C1CCC1 [Compound 70, N′-cyclobutyl-N^4-((2-fluoropyridin-3-yl)methyl)-N′-methyl-N^4-((1-(phenylsulfonyl)-1H-indol-3-yl)methyl)butane-1,4-diamine]"
121,79.7,> 50,0,12.1,93.6,5.6,–,"O=S(=O)(c1ccccc1)n1cc(CN(CCCCNC2CCC2)Cc2cccnc2F)c2ccccc21 [Compound 69, N′-cyclobutyl-N^4-((2-fluoropyridin-3-yl)methyl)-N^4-((1-(phenylsulfonyl)-1H-indol-3-yl)methyl)butane-1,4-diamine]"
145,94.2,80.9,16.3,2.2,98.4,5.3,Difference = 6 ng/ml,CN(CCCCN(Cc1ccncc1)Cc1cn(S(=O)(=O)c2ccccc2)c2ccccc12)C1CCCCC1 [Compound 18]
167,94.8,> 50,11.5,8.1,99,6.3,5.1 ng/mL,O=S(=O)(c1ccccc1)n1cc(CN(CCCCNC2CCCCC2)Cc2cccnc2)c2ccccc21 [Compound 15]
121,53.9,> 50,−12,13.8,96.3,7.8,–,CN(CCN(Cc1cccnc1)Cc1cn(S(=O)(=O)c2ccccc2)c2ccccc12)C1CCCCC1 [Compound 27]
165,88.2,> 50,15.7,5.4,99.5,4.8,4.7 ng/mL,O=S(=O)(c1ccccc1)n1cc(CN(CCCCNC2CCCCC2)Cc2ccncc2)c2ccccc21 [Compound 16]

# The remaining lines, values behind:
Structure (SMILES),Displacement (%) (TNFa/TNFRI interaction),BINDING IL13 % Neutra at 100 μM (IL-13) [%],IC50 (IL-13) [µM],BINDING IL6 % Neutra at 100 μM (IL-6) [%],IC50 (TNFα) [µM],BINDING IL4 % Neutra at 100 μM (IL-4) [%],IC50 (IL-4) [µM],Displacement EC50 TNFa in presence of compound: Difference (TNFa/TNFRI interaction)
CC(=O)NCCCCN(Cc1cccnc1F)Cc1cn(S(=O)(=O)c2ccccc2)c2ccccc12 [Compound 85],45,0,–,3,44.3,36.6,> 100,–
"O=S(=O)(c1ccccc1)n1cc(CN(CCOCCNC2CCCC2)Cc2cccnc2F)c2ccccc21 [Compound 103, N-(2-(2-(((2-fluoropyridin-3-yl)methyl)((1-(phenylsulfonyl)-1H-indol-3-yl)methyl)amino)ethoxy)ethyl)cyclopentanamine]",159,89.1,38.9,0,10.2,91.1,10.5,–
O=S(=O)(c1ccccc1)n1cc(CN(Cc2cccc(F)n2)CC2CCCN(C3CCCCC3)C2)c2ccccc21 (stereo not shown) [Compound 41],152,87.6,9.2,0,7,94.7,4.8,4.7 ng/mL
FC(F)(F)c1cccc(-n2cc(CN(Cc3ccccn3)CC3CCCN(C4CCCCC4)C3)c3ccccc32)c1 (stereo not shown) [Compound 2],183,97.1,1.4,2,19.9,97.8,3.3,14.9 ng/mL
O=S(=O)(NCCCCN(Cc1cccnc1F)Cc1cn(S(=O)(=O)c2ccccc2)c2ccccc12)N1CCOCC1 [Compound 82],18,0,–,5,> 50,27.9,> 100,–
O=C(NCCCCN(Cc1cccnc1F)Cc1cn(S(=O)(=O)c2ccccc2)c2ccccc12)N1CCOCC1 [Compound 84],111,0,–,3,21.2,0,–,–
NCCN(Cc1cccnc1)Cc1cn(S(=O)(=O)c2ccccc2)c2ccccc12 [Compound 59],78,59.3,> 50,0,35.8,89.4,43.9,–
FC(F)(F)c1cccc(-n2cc(CN(CCCCCNC3CCCCC3)Cc3cccnc3)c3ccccc32)c1 [Compound 38],139,98.9,1.5,24.9,> 50,95.7,3.9,–
